One series concerns primary cortical neurons. Nature of the series: Neuroprotection of primary cortical neurons exposed to Aβ peptides (Live/Dead assay). The settings on record: Rattus norvegicus, Primary cortical neuron, Aβ25-35, 48 hours, read-out: EC50 (concentration that lead to a 50% increase in neuronal survival in the presence of the Aβ peptide). The format is cell-based. Here is the method: This example illustrates the neuroprotective effects of TH-237A in neuronal cells after exposure to Aβ peptides. To prepare the primary neurons, dissociated cortical cell cultures were established from embryonic day 18 rat fetuses recovered from pregnant Sprague Dawley rats (Harlan Sprague Dawley, Inc., Indianapolis, Ind.) as described previously (Michaelis et al., 1994). Pups were delivered by cesarean section while the dam was anesthetized with pentobarbital (140 mg/kg, i.p.), and the brains were recovered according to National Institutes of Health-approved protocols. After the final precipitation step, neurons were suspended in fresh DMEM/F12 (Sigma Chemical Co. St. Louis, Mo.) with 10% fetal bovine serum (Atlanta Biologicals, Atlanta, Ga.) and plated at a density of 2.5×10^5 cells in 35 mm glass bottom microwell dishes (Mat-Tek Co., Ashland, Mass.), coated with poly-D-lysine. Serum-containing medium was removed after 24 hours, and the cells were maintained in serum-free DMEM/F12 containing the N2 supplements. […]
After five days in culture, the primary neurons were exposed to either Aβ25-35 or Aβ1-42 in the presence or absence of concentrations of TH-237A ranging from 0.5 to 60 nM. […] Each batch of Aβ peptide was analyzed for β-sheet formation by circular dichroism, but no effort was made to separate oligomers from fibrils. […]
The effects of the Aβ peptides and TH-237A were primarily determined by monitoring neuronal cell survival using the Live/Dead assay as previously described (Michaelis et al., 1998; Michaelis et al., 2005). […] The number of viable (green) and dead (red) neurons was determined by counting the cells, and this was done in 6-12 microscopic fields per culture dish in duplicate dishes for each treatment. […] Thus, approximately 1500 neurons were scored under each treatment condition. The fraction of viable cells in each field was calculated based on the total number of cells counted in each field. Raw data from each experiment were combined and the significance of differences between cultures exposed to various treatments was determined using Student's t test. […]

Series [1] in a line: Oral absorption of parent compound and prodrug (plasma levels). Format: in vivo. Here is the method:
The prodrug compound (3,5-bis(4-fluorophenyl)tetrahydro-1H-oxazolo[3,4-C]oxazol-7a-yl)methanol phosphate was studied for oral absorption. A formulation of (3,5-bis(4-fluorophenyl)tetrahydro-1H-oxazolo[3,4-C]oxazol-7a-yl)methanol was prepared into a suspension and into a composition with Captisol, and the prodrug thereof was formulated into an aqueous solution. Oral absorption behavior of the parent compound is depicted in FIG. 8. As previously mentioned, the systemic exposure of the parent compound following oral administration of the parent compound as a suspension is limited compared to a solution of the parent compound administered in Captisol. The systemic exposure of the prodrug compound following oral administration of an aqueous solution of the prodrug compound is depicted in FIG. 9.

Series [2] deals with P-glycoprotein efflux transporter. Nature of the series: Rhodamine 123 accumulation assay in bovine brain microvessel endothelial cells. The following applies: BBMECs. The format is in vitro ADME. Here is the method: First, a rhodamine 123 assay was used for to assess uptake of the test compound in brain endothelial cells. Bovine brain microvessel endothelial cells (“BBMECs”) were isolated and grown in primary culture on 12 well cluster dishes at a density of 50,000 cells/cm^2 essentially as described previously (Rice et al., 2005). The culture medium was changed every other day after seeding until a confluent monolayer was formed as determined by light microscopy. Experiments were performed in phosphate buffered saline supplemented with calcium and glucose (PBSA), pH 7.4. Briefly, the growth medium was first aspirated off, and the cells were rinsed three times with pre-warmed (37° C.) PBSA. […] Cell lysates were assayed using a microplate fluorescence reader (Bio-Tek Instruments, Winooski, Vt.) at excitation/emission wavelengths of 485 nm/520 nm, then quantified against standard curves of rhodamine 123 in lysing solution. The fluorescence of the cell lysates was corrected for autofluorescence of untreated cells. The protein content of each monolayer was then determined using the BCA protein assay reagent kit. Results were expressed as total nanomoles of rhodamine 123 accumulation per mg cellular protein for agents tested at 10 μM.

Series [3] in a line: In vivo pharmacokinetics in plasma and brain. The following applies: mice, 10 mg/Kg in Captisol, i.v. or s.c. The arrangement: species or system Male Balb/C mice. Here is the method: In this example, the pharmacokinetics of TH-237A were evaluated in vivo. Male Balb/C mice were dosed with TH-237A (10 mg/Kg in Captisol®) via either an i.v. injection into the tail vein or via subcutaneous (sc) injection. At multiple time points ranging from 0 to 240 minutes, 12 mice (n=6, i.v.; n=6, s.c.) were anesthetized with isoflurane, and blood was collected via cardiac puncture. Mice were perfused with 30 mL of saline to wash remaining blood from the vessels, and the brain tissue was harvested. The levels of TH-237A in plasma and brain were quantified using mass spectrometric methods.
Sample preparations. Brain homogenate was prepared in a 1:4 ratio with deionized water. A sonic dismembrator was pulsed at 30% power until the sample was liquified. Aliquots of mouse plasma (0.05 mL) or mouse brain homogenates (0.25 g) were spiked with 50 ng of internal standard (deuterated TH-237A) and vortexed for 10 seconds. The TH-237A and internal standard were extracted using 1.3 mL of methyl t-butyl ether. Samples were vortexed for 5 minutes and centrifuged. The supernatant was transferred to 2 mL centrifuge tubes and evaporated to dryness. The sample was reconstituted in 0.2 mL of sample solvent, vortexed and centrifuged before a 10 uL aliquot was injected on to the LC/MS system for analysis.
Analysis of TH-237A. The levels of the drug in the samples were determined by means of HPLC/MS. […]

The nature of another series: in vitro. The following applies: bovine, pH 7.4.

This is an account of results in US8318787B2, “Prodrugs of (3,5-bis(4-fluorophenyl)tetrahydro-1H-oxazolo[3,4-C]oxazol-7A-yl)methanol and derivatives thereof” (University of Kansas, priority 2005, dated 2012).

Procedure for in vitro: The BBMECs were grown on 0.4 μm polycarbonate membranes. […] Transport studies were performed in pH 7.4 standard buffer solutions, consisting of either Hank's balanced salt solution (HBSS) or phosphate buffered saline (PBS) supplemented with 0.63 mM CaCl2, 0.74 mM MgSO4, 5.3 mM glucose and 0.1 mM ascorbic acid (PBSA). Briefly, all studies were performed in 3 ml of PBSA in each donor and receiver chamber of the side-by-side diffusion chambers and stirred at 600 rpm at 37° C. The cells were allowed to equilibrate in PBSA for 30 minutes prior to each experiment and oriented such that apical or blood side of the cells face the donor chamber and the basolateral or brain side of the cells adhere to the polycarbonate membranes and face the receiver chamber of the diffusion apparatus. At each time point, a 100 μl sample was taken from the receiver compartment and immediately replaced with an equal volume of PBSA. The transport studies were performed in the presence or absence of CsA (5-10 μM). Monolayers were checked for trypan blue exclusion after experiments as well to assess general cell viability. The permeability of all monolayers used in these experiments was monitored for [^14C] sucrose leakage as a measure of potential TH-237A-induced loss of integrity. The radioactivity was quantified using liquid scintillation spectrometry.

`OCC1(CO)COC(c2ccc(F)cc2)N1` (racemic) [TH-OPEN, (R/S)-(2-(4-fluorophenyl)oxazolidine-4,4-diyl)dimethanol]: the melting point – broadly, the temperature of the solid-liquid transition – turned out to be 89 °C. Besides, the EC50 with primary cortical neurons is ~0.05 µM.
With `OCC12COC(c3ccc(F)cc3)N1C(c1ccc(F)cc1)OC2` (stereo not shown) [(3,5-bis(4-fluorophenyl)tetrahydro-1H-oxazolo[3,4-C]oxazol-7a-yl)methanol], the “systemic exposure after oral administration as a suspension compared to solution in Captisol” value in series [1] (suspension) was “limited”.
With `OCC12CO[C@H](c3ccc(C(F)(F)F)cc3)N1[C@@H](c1ccc(C(F)(F)F)cc1)OC2` (racemic) [TH-242B, (3R,5R) and (3S,5S) (3,5-bis(4-trifluoromethylphenyl)tetrahydro-1H-oxazolo[3,4-c]oxazol-7a-yl)methanol], the melting point was 120 °C.
Regarding `OC[C@]12CO[C@H](c3ccc(F)cc3)N1[C@H](c1ccc(F)cc1)OC2` [TH-237A, (3R,5S,7as)-(3,5-bis(4-fluorophenyl)tetrahydro-1H-oxazolo[3,4-c]oxazol-7a-yl)methanol], the EC50 with primary cortical neurons amounted to 0.005 µM. In addition, the “effect on rhodamine 123 accumulation / P-glycoprotein substrate” value in series [2] is “not a substrate for the P-glycoprotein efflux transporter”. Besides, in series [3], the plasma half-life result was “on the order of hours”. Further, the “amount of drug entering the plasma” value in series [3] (regardless of route) was “a very significant amount of the drug enters the plasma”. The apparent permeability (Papp) (as a rule, a coefficient for how fast a substance crosses the barrier) in “in vitro” was 270 ×10⁻⁶ cm/s.
As for `OCC12CO[C@H](c3ccc(F)cc3)N1[C@@H](c1ccc(F)cc1)OC2` (racemic) [TH-236B, (3R,5R) and (3S,5S) (3,5-bis(4-fluorophenyl)tetrahydro-1H-oxazolo[3,4-c]oxazol-7a-yl)methanol], the EC50 in the series with primary cortical neurons was ~0.04 µM.
Take `O=P([O-])([O-])OCC12COC(c3ccc(F)cc3)N1C(c1ccc(F)cc1)OC2.[Na+].[Na+]` (stereo not shown) [(3,5-bis(4-fluorophenyl)tetrahydro-1H-oxazolo[3,4-C]oxazol-7a-yl)methanol phosphate]: in series [1] (aqueous solution of prodrug), the “systemic exposure of drug from aqueous prodrug solution relative to Captisol solution of the parent compound” value is “equivalent or better”.
The compound `OC[C@]12CO[C@H](c3ccc(C(F)(F)F)cc3)N1[C@H](c1ccc(C(F)(F)F)cc1)OC2` [TH-242A] had a melting point of 102 °C.
The same measure, in the same setting: the same measure for `OCC1(CO)COC(c2ccc(C(F)(F)F)cc2)N1` (racemic) [TH-OPENTFM, (R/S)-(2-(4-(trifluoromethyl)phenyl)oxazolidine-4,4-diyl)dimethanol]: 98 °C.
